In US20110269695A1, “NOVEL ANTI-AGING PEPTIDES AND COSMETIC AND/OR PHARMACEUTICAL COMPOSITION CONTAINING SAME” (ISP INVESTMENTS, priority 2009, published 2011):
Where no end group is shown, it is not given here.

Experiments:
Clock protein [1] = assay: Immunolabeling of Clock protein in skin biopsies ex vivo; type: cell-based, human; conditions: treated skin
Method: (§1) A study of the activating effect of the peptide SEQ ID no. 3 was carried out by evaluating the expression of Clock, Per-1 and BMAL-1 proteins in skin biopsies ex vivo.
(§2) Ex vivo studies by immunolabeling have made it possible to evidence the expression of Clock, Per-1 and BMAL-1 proteins in skin samples. Samples of human skin are cultured at the air/liquid interface. The peptide SEQ ID no. 3 diluted to 1% (from a 10^−4M solution) is applied topically to these samples for 48 hr.
(§3) Skin samples not treated with the peptide SEQ ID no. 3 serve as a control. The skin samples are fixed with 10% formaldehyde and enclosed in paraffin. Sectional cuts of 3 μm are then made with a microtome. The immunolabeling is carried out after removal of the paraffin and unmasking of the antigenic sites. The immunolabeling for the Clock protein is carried out by means of an antibody (ABcam) diluted 1/250 and a secondary antibody diluted 1/50 and coupled to a fluorochrome.
(§4) The slides are then mounted in a suitable medium and observed under epifluorescence microscope (Nikon Eclipse E600).

Per-1 protein = assay: Immunolabeling of Per-1 protein in skin biopsies ex vivo; type: cell-based, human; conditions: treated skin
Method: as §1, §2, §3
The immunolabeling for the Per-1 protein is carried out by a polyclonal antibody (Cosmobio) diluted 1/100 and a secondary antibody diluted 1/50 and coupled to a fluorochrome.
as §4

BMAL-1 protein = assay: Immunolabeling of BMAL-1 protein in skin biopsies ex vivo; type: cell-based, human; conditions: treated skin
Method: as §1, §2, §3
The immunolabeling for the BMAL-1 protein is carried out by a polyclonal antibody (Aviva Systems Biology) diluted 1/120 and a secondary antibody diluted 1/50 and coupled to a fluorochrome.
as §4

Clock protein [2] = assay: Immunolabeling of Clock protein in skin samples aged artificially during culture; type: cell-based, human
Method: A study of the activating effect of the peptide SEQ ID no. 3 was carried out by evaluating the expression of the Clock protein in skin models, aged artificially during culture. The analysis was carried out after 62 hr and 134 hr of culturing.
Ex vivo studies by immunolabeling have made it possible to evidence the expression of the Clock protein in skin samples aged during culture. Samples of human skin are cultured at the air/liquid interface for 62 hr and 134 hr. The peptide SEQ ID no. 1 diluted to 1% (from a 10^−4M solution) is applied topically to these samples at a rate of two times per day during the period of the experiment.
as §3, with “μm are made with” for “μm are then made with”, “of an anti-rabbit antibody (ABcam)” for “of an antibody (ABcam)”
as §4

cultured fibroblasts = assay: Beta-galactosidase (X-gal) senescence labeling of cultured fibroblasts; type: cell-based; conditions: peptide diluted to 1%, once a day, versus untreated control cells
Method: A study of the anti-aging effect of the peptide SEQ ID no. 3 was carried out by evaluating the activity of the beta-galactosidase on cultured fibroblasts in the short and long term. In fact, beta-galactosidase is known to be present in senescent cells whereas beta-galactosidase activity is not found in pre-senescent, quiescent or immortal cells.
Fibroblasts cultured in 8-well labtecks are kept for 2 weeks (short term effect) or 7 weeks (long term effect) in the presence or absence of the peptide SEQ ID no. 3, diluted to 1% (from a 10^−4M solution). The treatment is carried out once a day. The cells which were untreated, but kept in culture for 2 or 7 weeks per the requirements of the experiment serve as controls. On the day of labeling, the cells are rinsed, fixed in a mixture (2% glutaraldehyde-2% formaldehyde) for 3 minutes. The cells are rinsed and 300 μl of (5-bromo-4-chloro-3 indolyl b-D-galactosidase), known commonly as X-gal (substrate of beta-galactosidase), are applied. Incubation is carried out for 24 hr in an incubator in the presence of CO2, then the cells are rinsed and the labteck is quickly placed in a suitable medium. Observation is carried out under transmission microscope. The principle is simple: when the cells are senescent and contain beta-galactosidase, the X-gal substrate is cleaved into a blue, insoluble product.

Clock protein [3] = assay: Western blot of Clock protein expression in cultured fibroblasts; type: cell-based
Method: A study of the activating effect of the peptide SEQ ID no. 2 was carried out by evaluating the expression of the Clock proteins by western blot in cultured fibroblasts. The technique of western blotting is a semi-quantitative method which makes it possible to evaluate the level of Clock proteins in cells.
Cultured fibroblasts are cultivated in containers with a diameter of 100 mm at 37° C. in a humidified atmosphere containing 5% CO2 for 18 hr in the presence or absence of the peptide SEQ ID no. 2, diluted to 1% (from a 10^−4M solution). The cells are rinsed and then removed from the support with the aid of an extraction buffer (20 mM TRIS, 150 mM NaCl, 10 mM EDTA, 0.2% triton […]) in the presence of a cocktail of protease inhibitors (Sigma). The proteins thus extracted are centrifuged at 4° C. at 10,000 rpm for 10 minutes, before being dosed by the BCA protein dosing kit (Pierce). The cellular lysates are mixed with a denaturing buffer and subjected to SDS-PAGE electrophoresis. The gel used is 4-12% Nupage (Invitrogen). The proteins are then transferred to a nitrocellulose membrane (Pal corporation). […] The quantitative evaluation of the proteins present in the cells was carried out using the chemiimager software (Alpha innotech Corporation USA).

Beta-galactosidase activity (blue coloration), short term (cultured fibroblasts; 2 weeks) | Beta-galactosidase activity (blue coloration), long term (cultured fibroblasts; 7 consecutive weeks) | Substance | amount of Clock protein versus untreated skin (Clock protein [1]) | amount of PER-1 protein versus untreated skin (Per-1 protein) | amount of BMAL-1 protein versus untreated skin (BMAL-1 protein) | labeling of the Clock protein compared to untreated control, 62 hr (Clock protein [2]; after 62 hr of culturing) | labeling of the Clock protein compared to untreated control, 134 hr (Clock protein [2]; after 134 hr) | Intensity (%) of Clock protein, Experiment 1 (Clock protein [3]; 1% treatment (from a 10^-4M solution), 18 hr, cultured fibroblasts, luminous intensity compared to untreated control (100%)) [%] | amount of Clock protein in the cultured fibroblasts (Clock protein [3]; peptide diluted to 1%, western blot)
largely reduced | largely reduced | Ser-Thr-Pro-NH2 [SEQ ID no. 3] | greater | greater | greater | increased | largely increased | – | –
– | – | Val-Ser-Thr-Pro-Glu-NH2 (VSTPE-NH2) [SEQ ID no. 2] | – | – | – | – | – | 154 | significantly increases
